Measured values: ChEMBL document CHEMBL5131427, “Targeted Discovery of Amantamide B, an Ion Channel Modulating Nonapeptide from a South China Sea Oscillatoria Cyanobacterium” (J Nat Prod, 2022)
pIC50: −log10 of the molar value. The source made the active and inactive calls. No cut-off for these calls is given here. Square brackets hold non-standard residues; d marks the D form. Peptide text beside a SMILES is read from it. * marks the point of attachment. dNMeF = CN[C@H](Cc1ccccc1)C(=O)O; NMeL = CN[C@@H](CC(C)C)C(=O)O; dNMeV = CN[C@@H](C(=O)O)C(C)C; Butyryl = CCCC(=O)*

Key:
[1] = system: U-937; test: Cytotoxicity against human U-937 cells measured after 72 hrs by MTT assay; format: functional, cell-based; conditions: U-937, 72 h
[2] = system: K562; test: Cytotoxicity against human K562 cells measured after 72 hrs by MTT assay; format: functional, cell-based; conditions: K562, 72 h
[3] = Cytotoxicity against Swiss-Webster mouse primary neocortical neuron at 10 uM incubated for 45 min by multi minute duration test; format: toxicity, cell-based; conditions: 0.75 h
[4] = system: CCRF-CEM; test: Cytotoxicity against human CCRF-CEM cells measured after 72 hrs by MTT assay; format: functional, cell-based
[5] = system: Primary neocortical neuron; test: Suppression of spontaneous calcium oscillation frequency in Swiss-Webster mouse primary neocortical neuron at 10 uM incubated for 45 min by Fluo-4 dye based; format: functional, cell-based

## CCCC(=O)N[C@H](C(=O)N(C)[C@@H](CC(C)C)C(=O)N[C@@H](CC(C)C)C(=O)N1CCC[C@H]1C(=O)N(C)[C@@H](C(=O)N[C@H](C(=O)NCC(=O)N(C)[C@H](Cc1ccccc1)C(=O)N1CCC[C@H]1C(=O)OC)[C@@H](C)CC)C(C)C)C(C)C (Butyryl-V[NMeL]LP[dNMeV]IG[dNMeF]P-OMe)
[1]
  pIC50: 5.21
[2]
  pIC50: < 4.60
[3]
  Activity: Non-Toxic
[4]
  pIC50: 5.08
[5]
  Activity: Active

## CCCC(=O)N(C)[C@H](C(=O)N(C)[C@@H](CC(C)C)C(=O)N[C@@H](CC(C)C)C(=O)N1CCC[C@H]1C(=O)N(C)[C@@H](C(=O)N[C@H](C(=O)NCC(=O)N(C)[C@H](Cc1ccccc1)C(=O)N1CCC[C@H]1C(=O)OC)[C@@H](C)CC)C(C)C)C(C)C
[1]
  pIC50: 5.14
[2]
  pIC50: 4.68
[3]
  Activity: Non-Toxic
[4]
  pIC50: 5.25
[5]
  Activity: Active

## Nc1cc(F)ccc1NC(=O)c1ccc(CNC(=O)/C=C/c2cccnc2)cc1 [TUCIDINOSTAT]
[1]
  pIC50: 5.48
[2]
  pIC50: 5.08
[4]
  pIC50: 6.00
